Reference: patent US10576085B2, “Substituted aminopurine compounds, compositions thereof, and methods of treatment therewith” (Signal Pharmaceuticals, LLC, priority 2016, dated 2020)

Tested on: cancer cell lines of Table 2
Assay: Multiplexed cytotoxicity assay: cell proliferation (relative cell count IC50, GI50)
Format: cell-based
Procedure: Cells are grown in RPMI1640, 10% FBS, 2 mM L-alanyl-L-Glutamine, 1 mM Na pyruvate or a special medium in a humidified atmosphere of 5% CO2 at 37° C. Cells are seeded into 384-well plates and incubated in a humidified atmosphere of 5% CO2 at 37° C. Compounds are added 24 h post cell seeding. At the same time, a time zero untreated cell plate is generated. After a 72 hour incubation period, cells are fixed and stained with fluorescently labeled antibodies and nuclear dye to allow visualization of nuclei, apoptotic cells and mitotic cells. Apoptotic cells are detected using an anti-active caspase-3 antibody. Mitotic cells are detected using an anti phospho-histone-3 antibody. Compounds are serially diluted 3.16-fold and assayed over 10 concentrations in a final assay concentration of 0.1% DMSO from the highest test concentration of 10 μM. Automated fluorescence microscopy was carried out using a Molecular Devices ImageXpress Micro XL high-content imager, and images are collected with a 4× objective.
(§1) Sixteen-bit TIFF images are acquired and analyzed with MetaXpress 5.1.0.41 software. Cell proliferation is measured by the signal intensity of the incorporated nuclear dye. The cell proliferation assay output is referred to as the relative cell count. To determine the cell proliferation end point, the cell proliferation data output is transformed to percentage of control (POC) using the following formula: POC=relative cell count(compound wells)/relative cell count(vehicle wells)×100
(§2) GI50 is the concentration needed to reduce the observed growth by half. This is the concentration that inhibits the growth to the level midway between growth in untreated cells and the number of cells seeded in the well (Time zero value). The IC50 values are calculated using nonlinear regression to fit data to a sigmoidal 4 point, 4 parameter One-Site dose response model, where: y(fit)=A+[(B−A)/(1+((C/x)^D))].
In Another Experiment, Cells were Grown in RPMI1640, 10% FBS, 2 mM L-alanyl-L-Glutamine, 1 mM Na pyruvate or a special medium in a humidified atmosphere of 5% CO2 at 37° C. Cells were seeded into 384-well plates and incubated in a humidified atmosphere of 5% CO2 at 37° C. Compounds were added 24 h post cell seeding. At the same time, a time zero untreated cell plate was generated. After a 72 hour incubation period, cells were fixed and stained with fluorescently labeled antibodies and nuclear dye to allow visualization of nuclei, apoptotic cells and mitotic cells. Apoptotic cells were detected using an anti-active caspase-3 antibody. Mitotic cells were detected using an anti phospho-histone-3 antibody. Compounds were serially diluted 3.16-fold and assayed over 10 concentrations in a final assay concentration of 0.1% DMSO from the highest test concentration of 10 μM. Automated fluorescence microscopy was carried out using a Molecular Devices ImageXpress Micro XL high-content imager, and images were collected with a 4× objective.
as §1, with “images were” for “images are”, “proliferation was” for “proliferation is”, “output was” for “output is”
as §2, with “GI50 refers to” for “GI50 is”, “This corresponds to” for “This is”, “values were” for “values are”

[1] = Homo sapiens, A204, A204, Soft Tissue, Sarcoma
[2] = Homo sapiens, A704, A704, Kidney
[3] = Homo sapiens, ARH-77, ARH77, Myeloma
[4] = Homo sapiens, BT-474, BT474, Breast
[5] = Homo sapiens, BT-549, BT549, Breast
[6] = Homo sapiens, C-4-II, C4II, Female GU, Cervix
[7] = Homo sapiens, CCF-STTG1, CCFSTTG1, CNS, Glioma
[8] = Homo sapiens, CFPAC-1, CFPAC1, Pancreas
[9] = Homo sapiens, ChaGo-K-1, CHAGOK1, Lung, NSCLC
[10] = Homo sapiens, K562, K562, Leukemia
[11] = Homo sapiens, ME-180, ME180, Female GU, Ovary
[12] = Homo sapiens, NALM-6, NALM6, Leukemia
[13] = Homo sapiens, NCI-H295R, NCIH295R, Endocrine, Adrenal gland
[14] = Homo sapiens, NCI-H460, NCIH460, Lung, NSCLC
[15] = Homo sapiens, OVCAR-3, OVCAR3, Female GU, Ovary
[16] = Homo sapiens, SK-NEP-1, SKNEP1, Kidney
[17] = Homo sapiens, SK-UT-1, SKUT1, Soft Tissue, Sarcoma
[18] = Homo sapiens, SNU-16, SNU16, Stomach
[19] = Homo sapiens, SiHa, Female GU, Cervix
[20] = Homo sapiens, T98G, CNS, Glioma
[21] = KHOS-240S, KHOS240S, Soft Tissue, Osteosarcoma

`C[C@]1(C(N)=O)CC[C@@H](n2c(Nc3c(Cl)cc(Cl)cc3Cl)nc3cnc(N[C@@H]4CCOC[C@H]4F)nc32)CC1` [Compound 1, cis-4-[2-{[(3S,4R)-3-fluorooxan-4-yl]amino}-8-(2,4,6-trichloroanilino)-9H-purin-9-yl]-1-methyl cyclohexane-1-carboxamide] was tested. Which GI50 (BC1, Lymphoma) did it give?
The GI50 was 10 µM.

And the IC50 (BC1, Lymphoma)?
Its IC50 is 10 µM.

And the GI50 (C4I, Female GU, Cervix)?
Its GI50 is 10 µM.

And the IC50 (C4I, Female GU, Cervix)?
The IC50 was 10 µM.

What about the GI50 (CEM/C1, CEMC1, Leukemia) of the same compound?
The GI50 was 10 µM.

What about the IC50 (CEM/C1, CEMC1, Leukemia) of the same compound?
The IC50 was 10 µM.

And the IC50 (CML-T1, CMLT1, Leukemia)?
Its IC50 is 10 µM.

What about the IC50 (DB, Lymphoma) of the same compound?
Its IC50 is 10 µM.

And the IC50 (HS229T, Lung, NSCLC)?
The IC50 was 10 µM.

What about the IC50 (HS688AT, Skin, Melanoma) of the same compound?
The IC50 was 10 µM.

What about the IC50 (HS729, Soft Tissue, Sarcoma) of the same compound?
Its IC50 is 10 µM.

What about the IC50 (HS821T, Soft Tissue, Sarcoma) of the same compound?
The IC50 was 10 µM.

What about the IC50 (HS888SK, Soft Tissue, Osteosarcoma) of the same compound?
The IC50 was 10 µM.

And the GI50 (HS895T, Skin, Melanoma)?
The GI50 was 10 µM.

What about the IC50 (HS895T, Skin, Melanoma) of the same compound?
The IC50 was 10 µM.

What about the IC50 (HS934T, Skin, Melanoma) of the same compound?
Its IC50 is 10 µM.

What about the IC50 (HT, Lymphoma) of the same compound?
Its IC50 is 10 µM.

And the GI50 [1]?
Its GI50 is 10 µM.

What about the IC50 [1] of the same compound?
The IC50 was 10 µM.

What about the IC50 (Homo sapiens, A253, A253, Head and Neck) of the same compound?
Its IC50 is 10 µM.

What about the GI50 [2] of the same compound?
The GI50 was 10 µM.

What about the IC50 [2] of the same compound?
The IC50 was 10 µM.

What about the GI50 [3] of the same compound?
Its GI50 is 10 µM.

What about the IC50 [3] of the same compound?
The IC50 was 10 µM.

What about the IC50 (Homo sapiens, ASPC1, ASPC1, Pancreas) of the same compound?
Its IC50 is 10 µM.

What about the IC50 (Homo sapiens, BT-20, BT20, Breast) of the same compound?
The IC50 was 10 µM.

And the GI50 [4]?
The GI50 was 10 µM.

And the IC50 [4]?
Its IC50 is 10 µM.

And the GI50 [5]?
Its GI50 is 10 µM.

What about the IC50 [5] of the same compound?
The IC50 was 10 µM.

And the IC50 (Homo sapiens, BV-173, BV173, Leukemia)?
The IC50 was 10 µM.

What about the GI50 [6] of the same compound?
Its GI50 is 10 µM.

And the IC50 [6]?
The IC50 was 10 µM.

What about the IC50 (Homo sapiens, CAPAN-1, CAPAN1, Pancreas) of the same compound?
Its IC50 is 10 µM.

And the GI50 [7]?
The GI50 was 10 µM.

And the IC50 [7]?
The IC50 was 10 µM.

What about the GI50 [8] of the same compound?
The GI50 was 10 µM.

What about the IC50 [8] of the same compound?
The IC50 was 10 µM.

What about the IC50 (Homo sapiens, COLO 320DM, COLO320DM, Colon) of the same compound?
The IC50 was 10 µM.

What about the IC50 (Homo sapiens, Ca-Ski, CASKI, Female GU, Ovary) of the same compound?
The IC50 was 10 µM.

And the IC50 (Homo sapiens, Caov-3, CAOV3, Female GU, Ovary)?
Its IC50 is 10 µM.

What about the GI50 [9] of the same compound?
Its GI50 is 10 µM.

And the IC50 [9]?
Its IC50 is 10 µM.

What about the IC50 (Homo sapiens, DMS-53, DMS53, Lung, SCLC) of the same compound?
The IC50 was 10 µM.

What about the IC50 (Homo sapiens, Daudi, Lymphoma) of the same compound?
The IC50 was 10 µM.

And the IC50 (Homo sapiens, Detroit 562, DETROIT562, Head and Neck)?
The IC50 was 10 µM.

And the IC50 (Homo sapiens, EFM-19, EFM19, Breast)?
Its IC50 is 10 µM.

What about the IC50 (Homo sapiens, HT1197, HT1197, Bladder) of the same compound?
The IC50 was 10 µM.

What about the GI50 [10] of the same compound?
The GI50 was 10 µM.

And the IC50 [10]?
Its IC50 is 10 µM.

What about the IC50 (Homo sapiens, MDA-MB-415, MDAMB415, Breast) of the same compound?
Its IC50 is 10 µM.

And the IC50 (Homo sapiens, MDA-MB-436, MDAMB436, Breast)?
The IC50 was 10 µM.

And the GI50 [11]?
Its GI50 is 10 µM.

And the IC50 [11]?
The IC50 was 10 µM.

What about the GI50 [12] of the same compound?
The GI50 was 10 µM.

What about the IC50 [12] of the same compound?
The IC50 was 10 µM.

What about the IC50 (Homo sapiens, NCI-H69, NCIH69, Lung, SCLC) of the same compound?
Its IC50 is 10 µM.

And the GI50 [13]?
The GI50 was 10 µM.

And the IC50 [13]?
The IC50 was 10 µM.

And the IC50 (Homo sapiens, NCI-H446, NCIH446, Lung, SCLC)?
The IC50 was 10 µM.

What about the GI50 [14] of the same compound?
The GI50 was 10 µM.

What about the IC50 [14] of the same compound?
The IC50 was 10 µM.

What about the IC50 (Homo sapiens, NCI-H596, NCIH596, Lung, NSCLC) of the same compound?
Its IC50 is 10 µM.

What about the IC50 (Homo sapiens, OE19, OE19, Head and Neck, Esophageal) of the same compound?
The IC50 was 10 µM.

And the GI50 [15]?
The GI50 was 10 µM.

And the IC50 [15]?
The IC50 was 10 µM.

What about the IC50 (Homo sapiens, PFSK-1, PFSK1, CNS, Glioma) of the same compound?
The IC50 was 10 µM.

And the IC50 (Homo sapiens, Raji, Lymphoma)?
Its IC50 is 10 µM.

And the IC50 (Homo sapiens, SK-N-DZ, SKNDZ, CNS, Neuroblastoma)?
The IC50 was 10 µM.

What about the GI50 [16] of the same compound?
The GI50 was 10 µM.

And the IC50 [16]?
The IC50 was 10 µM.

What about the IC50 (Homo sapiens, SK-OV-3, SKOV3, Female GU, Ovary) of the same compound?
The IC50 was 10 µM.

And the GI50 [17]?
Its GI50 is 10 µM.

What about the IC50 [17] of the same compound?
Its IC50 is 10 µM.

What about the GI50 [18] of the same compound?
The GI50 was 10 µM.

What about the IC50 [18] of the same compound?
Its IC50 is 10 µM.

What about the GI50 [19] of the same compound?
The GI50 was 10 µM.

What about the IC50 [19] of the same compound?
Its IC50 is 10 µM.

What about the GI50 (Homo sapiens, T47D, Breast) of the same compound?
The GI50 was 10 µM.

What about the IC50 (Homo sapiens, T47D, Breast) of the same compound?
Its IC50 is 10 µM.

And the GI50 [20]?
The GI50 was 10 µM.

What about the IC50 [20] of the same compound?
Its IC50 is 10 µM.

And the IC50 (Homo sapiens, U138-MG, U138MG, CNS, Glioma)?
Its IC50 is 10 µM.

And the IC50 (Homo sapiens, U-118-MG, U118MG, CNS, Glioma)?
The IC50 was 10 µM.

What about the GI50 (J82, Bladder) of the same compound?
The GI50 was 10 µM.

And the IC50 (J82, Bladder)?
Its IC50 is 10 µM.

What about the GI50 [21] of the same compound?
Its GI50 is 10 µM.

What about the IC50 [21] of the same compound?
The IC50 was 10 µM.

And the GI50 (KLE, Female GU, Uterus)?
Its GI50 is 10 µM.

And the IC50 (KLE, Female GU, Uterus)?
The IC50 was 10 µM.

And the GI50 (KPL-1, KPL1, Breast)?
Its GI50 is 10 µM.

And the IC50 (KPL-1, KPL1, Breast)?
The IC50 was 10 µM.

What about the IC50 (SKPNDW, Stomach) of the same compound?
The IC50 was 10 µM.

What about the IC50 (TE125T, Soft Tissue, Sarcoma) of the same compound?
Its IC50 is 10 µM.

What about the IC50 (TT, Endocrine, Thyroid) of the same compound?
Its IC50 is 10 µM.

What about the GI50 (Y79, Eye-retinoblastoma) of the same compound?
The GI50 was 10 µM.

What about the IC50 (Y79, Eye-retinoblastoma) of the same compound?
Its IC50 is 10 µM.

And the Anti-proliferative activity (variety of cancer cell lines (Table 3))?
Its Anti-proliferative activity is “anti-proliferative activity”.
